# Experimental data taken from US9695155B2, “Herbicidal substituted pyrimidinyloxy benzene compounds” (E. I. DU PONT DE NEMOURS AND COMPANY, priority 2013, dated 2017).
# Key:
# sedge, umbrella = assay: Test B flooded paddy test; format: in vivo, Cyperus difformis; conditions: Flood, 250 g ai/ha; 0 to 100 scale where 0 is no effect and 100 is complete control
# Summary of the method: (§1)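 2-leaf stage plants; pots flooded to 3 cm, compound added to paddy water, depth maintained. Greenhouse 13–15 d. Visual rating vs untreated controls, 0 (no effect) to 100 (complete control); dash = no result.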
# blackgrass = assay: Test A postemergence; format: in vivo, Alopecurus myosuroides; conditions: 0 to 100 scale, 0 no effect, 100 complete control
# Summary of the method: (§2)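 Pre- and postemergence greenhouse screen. Soil: loam + sand. Spray carrier: solvent mixture, non-phytotoxic, with surfactant. Post timing at 1–2 leaves, height 2–10 cm. Readout: visual injury on a 0–100 scale roughly 10 days after application, untreated plants as reference.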
# Italian ryegrass [1] = assay: Test A postemergence; format: in vivo, Lolium multiflorum; conditions: 0 to 100 scale, 0 no effect, 100 complete control
# Summary of the method: as §2
# barnyardgrass [2] = assay: Test A postemergence; format: in vivo, Echinochloa crus-galli; conditions: 0 to 100 scale, 0 no effect, 100 complete control
# Summary of the method: as §2
# wheat = assay: Test A postemergence; format: in vivo, Triticum aestivum; conditions: 0 to 100 scale, 0 no effect, 100 complete control
# Summary of the method: as §2
# pigweed [3] = assay: Test A postemergence; format: in vivo, Amaranthus retroflexus; conditions: 0 to 100 scale, 0 no effect, 100 complete control
# Summary of the method: as §2
# Heteranthera limosa = assay: Test B flooded paddy test; format: in vivo; conditions: Flood, 250 g ai/ha; 0 to 100 scale where 0 is no effect and 100 is complete control
# Summary of the method: as §1
# pigweed [4] = assay: Test A preemergence; format: in vivo, Amaranthus retroflexus; conditions: for Plant response rating, Pigweed: 31 g ai/ha, 0 to 100 scale where 0 is no effect and 100 is complete control, visual, approximately 10 days; for Pigweed plant response rating (0 to 100 scale): 125 g ai/ha
# Summary of the method: as §2
# giant foxtail [5] = assay: Test A preemergence; format: in vivo, Setaria faberii; conditions: for Plant response rating, Foxtail, Giant: 31 g ai/ha, 0 to 100 scale where 0 is no effect and 100 is complete control, visual, approximately 10 days; for Foxtail, Giant plant response rating (0 to 100 scale): 125 g ai/ha
# Summary of the method: as §2
# corn = assay: Test A postemergence; format: in vivo, Zea mays; conditions: 0 to 100 scale, 0 no effect, 100 complete control
# Summary of the method: as §2
# barnyardgrass [6] = assay: Test B flooded paddy test; format: in vivo, Echinochloa crus-galli; conditions: Flood, 250 g ai/ha; 0 to 100 scale where 0 is no effect and 100 is complete control
# Summary of the method: as §1
# kochia [7] = assay: Test A postemergence; format: in vivo, Kochia scoparia; conditions: 0 to 100 scale, 0 no effect, 100 complete control
# Summary of the method: as §2
# ragweed [8] = assay: Test A preemergence; format: in vivo, Ambrosia elatior; conditions: for Plant response rating, Ragweed: 31 g ai/ha, 0 to 100 scale where 0 is no effect and 100 is complete control, visual, approximately 10 days; for Ragweed plant response rating (0 to 100 scale): 125 g ai/ha
# Summary of the method: as §2
# kochia [9] = assay: Test A preemergence; format: in vivo, Kochia scoparia; conditions: for Plant response rating, Kochia: 31 g ai/ha, 0 to 100 scale where 0 is no effect and 100 is complete control, visual, approximately 10 days; for Kochia plant response rating (0 to 100 scale): 125 g ai/ha
# Summary of the method: as §2
# giant foxtail [10] = assay: Test A postemergence; format: in vivo, Setaria faberii; conditions: 0 to 100 scale, 0 no effect, 100 complete control
# Summary of the method: as §2
# rice = assay: Test B flooded paddy test; format: in vivo, Oryza sativa; conditions: Flood, 250 g ai/ha; 0 to 100 scale where 0 is no effect and 100 is complete control
# Summary of the method: as §1
# galium = assay: Test A postemergence; format: in vivo, Galium aparine; conditions: 0 to 100 scale, 0 no effect, 100 complete control
# Summary of the method: as §2
# Italian ryegrass [11] = assay: Test A preemergence; format: in vivo, Lolium multiflorum; conditions: for Plant response rating, Ryegrass, Italian: 31 g ai/ha, 0 to 100 scale where 0 is no effect and 100 is complete control, visual, approximately 10 days; for Ryegrass, Italian plant response rating (0 to 100 scale): 125 g ai/ha
# Summary of the method: as §2
# ragweed [12] = assay: Test A postemergence; format: in vivo, Ambrosia elatior; conditions: 0 to 100 scale, 0 no effect, 100 complete control
# Summary of the method: as §2
# barnyardgrass [13] = assay: Test A preemergence; format: in vivo, Echinochloa crus-galli; conditions: for Plant response rating, Barnyardgrass: 31 g ai/ha, 0 to 100 scale where 0 is no effect and 100 is complete control, visual, approximately 10 days; for Barnyardgrass plant response rating (0 to 100 scale, 0 is no effect, 100 is complete control): 125 g ai/ha
# Summary of the method: as §2
SMILES,"Plant response rating, Sedge, Umbrella (sedge, umbrella)","Plant response rating, Blackgrass (blackgrass; 31 g ai/ha)","Plant response rating, Blackgrass (blackgrass; 125 g ai/ha)","Plant response rating, Ryegrass, Italian (Italian ryegrass [1]; 31 g ai/ha)","Plant response rating, Ryegrass, Italian (Italian ryegrass [1]; 125 g ai/ha)","Plant response rating, Barnyardgrass (barnyardgrass [2]; 31 g ai/ha)","Plant response rating, Barnyardgrass (barnyardgrass [2]; 125 g ai/ha)","Plant response rating, Wheat (wheat; 31 g ai/ha)","Plant response rating, Wheat (wheat; 125 g ai/ha)","Plant response rating, Pigweed (pigweed [3]; 31 g ai/ha)","Plant response rating, Pigweed (pigweed [3]; 125 g ai/ha)","Plant response rating, Ducksalad (Heteranthera limosa)","Plant response rating, Pigweed (pigweed [4])",Pigweed plant response rating (0 to 100 scale) (pigweed [4]),"Plant response rating, Foxtail, Giant (giant foxtail [5])","Foxtail, Giant plant response rating (0 to 100 scale) (giant foxtail [5])","Plant response rating, Corn (corn; 31 g ai/ha)","Plant response rating, Corn (corn; 125 g ai/ha)","Plant response rating, Barnyardgrass (barnyardgrass [6])","Plant response rating, Kochia (kochia [7]; 31 g ai/ha)",also measured
Fc1cccc(Oc2ncc(Cl)cn2)c1-n1cc(-c2ccsc2)nn1 [Compound 277],80,30,50,30,50,20,40,0,0,60,70,80,30,60,30,70,0,20,0,60,"Plant response rating, Kochia (kochia [7]; 125 g ai/ha): 70; Plant response rating, Ragweed (ragweed [8]): 0; Ragweed plant response rating (0 to 100 scale) (ragweed [8]): 0; Plant response rating, Kochia (kochia [9]): 0; Kochia plant response rating (0 to 100 scale) (kochia [9]): 0; Plant response rating, Foxtail, Giant (giant foxtail [10]; 31 g ai/ha): 40; Plant response rating, Foxtail, Giant (giant foxtail [10]; 125 g ai/ha): 70; Plant response rating, Rice (rice): 0; Plant response rating, Galium (galium; 31 g ai/ha): 100; Plant response rating, Galium (galium; 125 g ai/ha): 100; Plant response rating, Ryegrass, Italian (Italian ryegrass [11]): 0; Ryegrass, Italian plant response rating (0 to 100 scale) (Italian ryegrass [11]): 0; Plant response rating, Ragweed (ragweed [12]; 31 g ai/ha): 50; Plant response rating, Ragweed (ragweed [12]; 125 g ai/ha): 60; Plant response rating, Barnyardgrass (barnyardgrass [13]): 0; Barnyardgrass plant response rating (0 to 100 scale, 0 is no effect, 100 is complete control) (barnyardgrass [13]): 0"
NC(=O)c1cccc(Oc2ncc(Cl)cn2)c1-n1cc(C(F)(F)F)cn1 [Compound 278],0,0,0,0,0,0,0,0,0,0,10,0,0,10,0,0,0,0,0,0,"Plant response rating, Kochia (kochia [7]; 125 g ai/ha): 0; Plant response rating, Ragweed (ragweed [8]): 0; Ragweed plant response rating (0 to 100 scale) (ragweed [8]): 0; Plant response rating, Kochia (kochia [9]): 0; Kochia plant response rating (0 to 100 scale) (kochia [9]): 0; Plant response rating, Foxtail, Giant (giant foxtail [10]; 31 g ai/ha): 0; Plant response rating, Foxtail, Giant (giant foxtail [10]; 125 g ai/ha): 0; Plant response rating, Rice (rice): 0; Plant response rating, Galium (galium; 31 g ai/ha): 0; Plant response rating, Galium (galium; 125 g ai/ha): 10; Plant response rating, Ryegrass, Italian (Italian ryegrass [11]): 0; Ryegrass, Italian plant response rating (0 to 100 scale) (Italian ryegrass [11]): 0; Plant response rating, Ragweed (ragweed [12]; 31 g ai/ha): 0; Plant response rating, Ragweed (ragweed [12]; 125 g ai/ha): 10; Plant response rating, Barnyardgrass (barnyardgrass [13]): 0; Barnyardgrass plant response rating (0 to 100 scale, 0 is no effect, 100 is complete control) (barnyardgrass [13]): 0"
